How the values were obtained:
[1] = system: human umbilical vein endothelial cells (HUVECs); assay: MTT assay of HUVEC viability following viral exposure; format: cell-based
Description: To determine the appropriate dose for vascular gene transfer, human umbilical vein endothelial cells (HUVECs) were contacted with graded concentrations of HSV-1 for 120 min and viability was assessed using a standard 72 hr MTT assay, as described below.
Human umbilical vein endothelial cells (HUVECs; BioWhittaker/Clonetics) were suspended in complete medium EBM-2 (BioWhittaker #CC3 156) and singlequots of EGM-2 (#CC4176) and grown to 100% confluence in P75 flasks in a 37° C. incubator with humidified 5% CO2 For the passage of cells, all reagent pack contents (HBSS, Trypsin/EDTA, TNS; BioWhittaker CC-5034) were thawed in a 37° C. water bath and exhausted media was removed and discarded. HUVECs were washed with enough HBSS to cover them, trypsin/EDTA was added, and flasks were gently agitated under an inverted microscope. […]
A modified colorimetric assay based on the selective ability of living cells to reduce the yellow salt MTT (3-[4,5-dimethylthiozol-2-yl]-2,5 diphenyl tetrazolium bromide; Sigma Chemical Co.) to formazan was used to quantitate HUVEC viability following viral exposure. […] The formazan crystals were then dissolved in 0.1 ml DMSO (Sigma) and the absorbance measured at 515 nm using a microplate spectrophotometer (SpectraMax 340 004) interfaced with a personal computer (Apple Macintosh). This process was repeated after 72 hours and relative cell survival was calculated. […]

[2] = system: umbilical artery smooth muscle cells (UASMCs); assay: MTT assay of UASMC viability following viral exposure and Acyclovir rescue; format: cell-based, human; conditions: UASMCs infected with R849 MOI=25, even with 10 μg/ml Acyclovir
Excerpt: A modified colorimetric assay based on the selective ability of living cells to reduce the yellow salt MTT (3-[4,5-dimethylthiozol-2-yl]-2,5 diphenyl tetrazolium bromide; Sigma Chemical Co.) to formazan was used to quantitate HUVEC and UASMC viability following viral exposure and rescue with Acyclovir (Abbott Laboratories).

[3] = system: established HSV-1 infection; assay: Eradication of established R849 infection with Acyclovir in rabbit vein patch; format: in vivo
Excerpt: (§1) Its mechanism of action is believed to include penetration intracellularly, conversion initially to the monophosphate by viral thymidine kinases, then to the diphosphate by cellular guanylate kinase and, finally, to the triphosphate by various other cellular enzymes. Fully active Acyclovir triphosphate competes with the natural substrate, deoxyguanosine triphosphate, for a position in the DNA chain of the herpes virus. Once incorporated, it terminates DNA synthesis via (1) competitive inhibition of viral DNA polymerase, (2) incorporation into, and termination of, the growing viral DNA chain, and (3) inactivation of the viral DNA polymerase. Uninfected cells show only minimal uptake and phosphorylation of Acyclovir. The HSV strains used in this example retain tk activity and are thus highly susceptible to neutralization by Acyclovir. To test whether an established HSV-1 infection could be eradicated after completion of the desired therapeutic effect (of the recombinant HSV) in vivo, a rabbit model was used. […] Baseline serum Acyclovir, electrolyte, blood urea nitrogen, and creatinine levels were measured before initiation of Acyclovir treatment, on days 2, 5, and 10 after initiation of treatment, and at sacrifice. […]

[4] = Serum Acyclovir level and serum chemistry during Acyclovir therapy; format: in vivo, rabbit
Excerpt: as §1

Compound: Nc1nc2c(ncn2COCCO)c(=O)[nH]1 [Acyclovir, 12-amino-1,9-dihydro-9-[(2-hydroxy-ethoxy)methyl]-6H-purin-6-one]
- relative 72 hr cell survival with Acyclovir ([1]; HUVECs infected with R849 MOI=25, Acyclovir 0.25 μg/ml): 45±5%
- relative 72 hr cell survival with Acyclovir ([1]; HUVECs infected with R849 MOI=25, Acyclovir 0.5 μg/ml): 85±9%
- rescue of infected cells with Acyclovir [2]: could not be rescued
- cells with β-galactosidase activity after Acyclovir treatment ([3]; R849 4×10^8 pfu/ml vein patch, Acyclovir 75 mg/kg iv five days from week 1 plus oral, harvest at four weeks): < 1%
- patency of treated vein patches after eradication of R849 infection ([3]; four weeks): remained widely patent
- serum levels of Acyclovir ([4]; during Acyclovir therapy, rabbits): 9000 ± 4000 ng/mL
- systemic toxicity by serum electrolytes, blood urea nitrogen and creatinine ([4]; throughout the study, rabbits with R849-infected patches on Acyclovir): no significant systemic toxicity

— patent publication US6846670B2, “Genetically engineered herpes virus for the treatment of cardiovascular disease” (priority 2000, dated 2005)
